PubChem BioAssay (NCI)
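96-well plates; 48 h exposure; 5 concentrations. Endpoints by linear interpolation between flanking doses. Not reached: highest tested concentration assigned. GI50: concentration for 50% inhibition of growth. TGI: concentration producing complete growth inhibition.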

Tests used:
Assay in all cases: inhibition of tumour cell growth, NCI panel, 48 h; in the data active means GI50 below about 0.43 µM; inactive means the rest
K-562 leukemia = test system: K-562 leukemia
COLO 205 colon = test system: COLO 205 colon
HT29 colon = test system: HT29 colon
OVCAR-4 ovarian = test system: OVCAR-4 ovarian
HS 578T breast = test system: HS 578T breast
HCT-15 colon = test system: HCT-15 colon
SNB-75 CNS = test system: SNB-75 CNS
HOP-92 NSCLC = test system: HOP-92 NSCLC
MDA-MB-435 = test system: MDA-MB-435
HOP-62 NSCLC = test system: HOP-62 NSCLC
SR leukemia = test system: SR leukemia
NCI-H226 lung = test system: NCI-H226 lung
ACHN renal = test system: ACHN renal
MDA-MB-231 breast = test system: MDA-MB-231 breast
LOX IMVI melanoma = test system: LOX IMVI melanoma
KM12 colon = test system: KM12 colon
OVCAR-8 ovarian = test system: OVCAR-8 ovarian
SK-MEL-5 melanoma = test system: SK-MEL-5 melanoma
A549 NSCLC = test system: A549 NSCLC
OVCAR-3 ovarian = test system: OVCAR-3 ovarian
TK-10 renal = test system: TK-10 renal
PC-3 prostate = test system: PC-3 prostate
SF-268 CNS = test system: SF-268 CNS
CCRF-CEM leukemia = test system: CCRF-CEM leukemia
NCI-H522 lung = test system: NCI-H522 lung
HL-60(TB) leukemia = test system: HL-60(TB) leukemia
SK-MEL-28 melanoma = test system: SK-MEL-28 melanoma
SK-MEL-2 melanoma = test system: SK-MEL-2 melanoma
MCF7 breast = test system: MCF7 breast
MDA-N = test system: MDA-N
MOLT-4 leukemia = test system: MOLT-4 leukemia
UO-31 renal = test system: UO-31 renal
SK-OV-3 ovarian = test system: SK-OV-3 ovarian
M14 melanoma = test system: M14 melanoma
EKVX NSCLC = test system: EKVX NSCLC
SW-620 colon = test system: SW-620 colon
SF-539 CNS = test system: SF-539 CNS
SN12C renal = test system: SN12C renal
U251 CNS = test system: U251 CNS
DU-145 prostate = test system: DU-145 prostate
SF-295 CNS = test system: SF-295 CNS
RPMI-8226 leukemia = test system: RPMI-8226 leukemia
RXF 393 renal = test system: RXF 393 renal
CAKI-1 renal = test system: CAKI-1 renal
SNB-19 CNS = test system: SNB-19 CNS
OVCAR-5 ovarian = test system: OVCAR-5 ovarian
UACC-62 melanoma = test system: UACC-62 melanoma
NCI/ADR-RES ovarian = test system: NCI/ADR-RES ovarian
UACC-257 melanoma = test system: UACC-257 melanoma
786-0 renal = test system: 786-0 renal
NCI-H23 lung = test system: NCI-H23 lung
IGROV1 ovarian = test system: IGROV1 ovarian
NCI-H460 lung = test system: NCI-H460 lung
MALME-3M melanoma = test system: MALME-3M melanoma
HCT-116 colon = test system: HCT-116 colon
BT-549 breast = test system: BT-549 breast
T-47D breast = test system: T-47D breast
A498 renal = test system: A498 renal
HCC-2998 colon = test system: HCC-2998 colon

CN(NC(=O)/C(=C/c1ccc(Cl)cc1)NC(=O)c1ccccc1)c1cn[nH]c(=O)c1Cl
84.2 µM: TGI (MOLT-4 leukemia)
41.6 µM: TGI (HL-60(TB) leukemia)
53.5 µM: TGI (RPMI-8226 leukemia)
> 100 µM: TGI (K-562 leukemia) | TGI (COLO 205 colon) | TGI (HT29 colon) | TGI (OVCAR-4 ovarian) | TGI (HS 578T breast) | TGI (HCT-15 colon) | TGI (SNB-75 CNS) | TGI (HOP-92 NSCLC) | TGI (MDA-MB-435) | TGI (HOP-62 NSCLC) | TGI (SR leukemia) | TGI (NCI-H226 lung) | TGI (ACHN renal) | TGI (MDA-MB-231 breast) | TGI (LOX IMVI melanoma) | TGI (KM12 colon) | TGI (OVCAR-8 ovarian) | TGI (SK-MEL-5 melanoma) | TGI (A549 NSCLC) | TGI (OVCAR-3 ovarian) | TGI (TK-10 renal) | TGI (PC-3 prostate) | TGI (SF-268 CNS) | TGI (CCRF-CEM leukemia) | TGI (SK-MEL-28 melanoma) | TGI (SK-MEL-2 melanoma) | TGI (MCF7 breast) | TGI (MDA-N) | TGI (UO-31 renal) | TGI (SK-OV-3 ovarian) | TGI (M14 melanoma) | TGI (EKVX NSCLC) | TGI (SW-620 colon) | TGI (SF-539 CNS) | TGI (SN12C renal) | TGI (U251 CNS) | TGI (DU-145 prostate) | TGI (SF-295 CNS) | TGI (RXF 393 renal) | TGI (CAKI-1 renal) | TGI (SNB-19 CNS) | TGI (OVCAR-5 ovarian) | TGI (UACC-62 melanoma) | TGI (NCI/ADR-RES ovarian) | TGI (UACC-257 melanoma) | TGI (786-0 renal) | TGI (NCI-H23 lung) | TGI (IGROV1 ovarian) | TGI (NCI-H460 lung) | TGI (MALME-3M melanoma) | TGI (HCT-116 colon)
56.6 µM: TGI (NCI-H522 lung)

N#C/C(=C\c1cn(Cc2ccccc2)c2ccccc12)C(=O)Nc1ncc(Cc2ccccc2Cl)s1
2.87 µM: TGI (A498 renal)
4.85 µM: TGI (SK-MEL-2 melanoma)
4.72 µM: TGI (MDA-MB-435)
6.14 µM: TGI (RXF 393 renal)
12.7 µM: TGI (EKVX NSCLC)
5.67 µM: TGI (NCI-H226 lung)
3.62 µM: TGI (OVCAR-3 ovarian)
6.87 µM: TGI (SF-295 CNS)
23.4 µM: TGI (SF-268 CNS)
3.11 µM: TGI (786-0 renal)
inactive: GI50 (K-562 leukemia) 3.03 µM | GI50 (COLO 205 colon) 1.14 µM | GI50 (HT29 colon) 2.66 µM | GI50 (HS 578T breast) 1.93 µM | GI50 (HCT-15 colon) 2.83 µM | GI50 (SNB-75 CNS) 1.5 µM | GI50 (HOP-92 NSCLC) 1.88 µM | GI50 (MDA-MB-435) 1.79 µM | GI50 (HOP-62 NSCLC) 2.52 µM | GI50 (SR leukemia) 1.11 µM | GI50 (NCI-H226 lung) 1.7 µM | GI50 (ACHN renal) 0.823 µM | GI50 (MDA-MB-231 breast) 1.93 µM | GI50 (LOX IMVI melanoma) 4.61 µM | GI50 (KM12 colon) 1.89 µM | GI50 (OVCAR-8 ovarian) 1.35 µM | GI50 (SK-MEL-5 melanoma) 2.62 µM | GI50 (A549 NSCLC) 1.79 µM | GI50 (OVCAR-3 ovarian) 1.56 µM | GI50 (TK-10 renal) 1.93 µM | GI50 (PC-3 prostate) 2.01 µM | GI50 (SF-268 CNS) 2.79 µM | GI50 (CCRF-CEM leukemia) 2.51 µM | GI50 (NCI-H522 lung) 1.8 µM | GI50 (HL-60(TB) leukemia) > 100 µM | GI50 (SK-MEL-28 melanoma) 2.36 µM | GI50 (BT-549 breast) 2.94 µM | GI50 (SK-MEL-2 melanoma) 2.05 µM | GI50 (MCF7 breast) 3.01 µM | GI50 (MOLT-4 leukemia) 2.49 µM | GI50 (UO-31 renal) 1.46 µM | GI50 (SK-OV-3 ovarian) 1.8 µM | GI50 (M14 melanoma) 2.52 µM | GI50 (EKVX NSCLC) 2.82 µM | GI50 (SW-620 colon) 1.52 µM | GI50 (SF-539 CNS) 1.68 µM | GI50 (SN12C renal) 1.57 µM | GI50 (U251 CNS) 1.36 µM | GI50 (DU-145 prostate) 2.75 µM | GI50 (SF-295 CNS) 2.36 µM | GI50 (T-47D breast) 1.69 µM | GI50 (RPMI-8226 leukemia) 3.23 µM | GI50 (RXF 393 renal) 2.27 µM | GI50 (CAKI-1 renal) 1.43 µM | GI50 (A498 renal) 1.08 µM | GI50 (SNB-19 CNS) 3.07 µM | GI50 (HCC-2998 colon) 3.23 µM | GI50 (OVCAR-5 ovarian) 1.7 µM | GI50 (UACC-62 melanoma) 1.52 µM | GI50 (NCI/ADR-RES ovarian) 2.68 µM | GI50 (UACC-257 melanoma) 3.3 µM | GI50 (786-0 renal) 1.51 µM | GI50 (NCI-H23 lung) 1.71 µM | GI50 (IGROV1 ovarian) 1.93 µM | GI50 (NCI-H460 lung) 0.53 µM | GI50 (MALME-3M melanoma) 1.78 µM | GI50 (HCT-116 colon) 1.27 µM
2.14 µM: TGI (ACHN renal)
2.81 µM: TGI (COLO 205 colon)
3.42 µM: TGI (SF-539 CNS)
5.57 µM: TGI (IGROV1 ovarian)
3.75 µM: TGI (CAKI-1 renal)
4.79 µM: TGI (MDA-MB-231 breast)
6.62 µM: TGI (KM12 colon)
4.54 µM: TGI (SNB-75 CNS)
6.36 µM: TGI (NCI-H522 lung)
3.18 µM: TGI (UO-31 renal)
7.48 µM: TGI (PC-3 prostate)
6.74 µM: TGI (SK-MEL-28 melanoma)
3.88 µM: TGI (SN12C renal)
17.8 µM: TGI (SNB-19 CNS)
4.15 µM: TGI (T-47D breast)
3.89 µM: TGI (HCT-116 colon)
3.58 µM: TGI (SR leukemia)
active: GI50 (OVCAR-4 ovarian) 0.393 µM
4.66 µM: TGI (SK-OV-3 ovarian)
4.14 µM: TGI (MALME-3M melanoma)
48.8 µM: TGI (LOX IMVI melanoma)
7.08 µM: TGI (HS 578T breast) | TGI (SK-MEL-5 melanoma)
4.59 µM: TGI (OVCAR-5 ovarian)
11.6 µM: TGI (BT-549 breast)
4.2 µM: TGI (TK-10 renal) | TGI (SW-620 colon)
13.3 µM: TGI (NCI/ADR-RES ovarian)
3.13 µM: TGI (OVCAR-8 ovarian)
1.99 µM: TGI (NCI-H460 lung)
4.08 µM: TGI (NCI-H23 lung)
2.92 µM: TGI (U251 CNS)
6.02 µM: TGI (A549 NSCLC)
1.61 µM: TGI (OVCAR-4 ovarian)
> 100 µM: TGI (K-562 leukemia) | TGI (HT29 colon) | TGI (HCT-15 colon) | TGI (CCRF-CEM leukemia) | TGI (HL-60(TB) leukemia) | TGI (MCF7 breast) | TGI (MOLT-4 leukemia) | TGI (DU-145 prostate) | TGI (RPMI-8226 leukemia) | TGI (HCC-2998 colon) | TGI (UACC-257 melanoma)
10.4 µM: TGI (HOP-62 NSCLC) | TGI (M14 melanoma)
6 µM: TGI (HOP-92 NSCLC)
3.16 µM: TGI (UACC-62 melanoma)
